The record followed here is patent US6340702B1 (priority 1996, dated 2002).

In experiment [1] the test system is Influenza virus strain A/Yamagata/32189(H1N1). The experiment can be described thus: microbe, parasite or virus in culture. The class given is cell-based.
Experiment [2] addresses crude influenza virus sialidase (Influenza A virus, UniProt P03468). The conditions noted are these: Table 5; absorbance at 415 nm reduced by 50%, pH 6.5, 37° C., 20 minutes.
Description: In this experiment, a sample of influenza virus strain A/PR/8/34(H1N1) was dissolved by means of a surfactant, after which the virus membrane fraction was purified by centrifugation.
An enzyme solution was first prepared such that the final enzyme activity was 0.001 1 units/ml (1 unit corresponds to that amount of enzyme which hydrolyzes 1 μmole of substrate in 1 minute). Also prepared beforehand were aqueous solutions of test compound in various concentrations; an aqueous solution of the substrate to a concentration of 33 μg/ml, and a 20 mM 2-(N-morpholino)-ethanesulfonic acid buffer (pH 6.5) containing 50 mM calcium chloride. These solutions were combined to prepare a mixture having a final volume of 150 μl, and which was then left to stand at 37° C. for 20 minutes.
For experiment [3], the system named is mouse-acclimated influenza virus A/PR/8/34 strain. Also noted: species or system mice (BALB/C). The conditions noted are these: in vivo.
For experiment [4] the test system is unchanged. Also noted: species or system mice (BALB/C). The conditions noted are these: in vivo. This is another data set of the same source.
Experiment [5] has the same test system. Also noted: species or system mice (BALB/C). The conditions noted are these: in vivo. This is another data set of the same source.

Structures are written as SMILES. “And” between values parts separate entries of the source, which are not always exact repeats. Identical values can stand only once. Counter-ions that a name gives are not always drawn. Like-named read-outs stand apart in the source and are kept apart here.

Chain of crude influenza virus sialidase (P03468 whole entry, looked up): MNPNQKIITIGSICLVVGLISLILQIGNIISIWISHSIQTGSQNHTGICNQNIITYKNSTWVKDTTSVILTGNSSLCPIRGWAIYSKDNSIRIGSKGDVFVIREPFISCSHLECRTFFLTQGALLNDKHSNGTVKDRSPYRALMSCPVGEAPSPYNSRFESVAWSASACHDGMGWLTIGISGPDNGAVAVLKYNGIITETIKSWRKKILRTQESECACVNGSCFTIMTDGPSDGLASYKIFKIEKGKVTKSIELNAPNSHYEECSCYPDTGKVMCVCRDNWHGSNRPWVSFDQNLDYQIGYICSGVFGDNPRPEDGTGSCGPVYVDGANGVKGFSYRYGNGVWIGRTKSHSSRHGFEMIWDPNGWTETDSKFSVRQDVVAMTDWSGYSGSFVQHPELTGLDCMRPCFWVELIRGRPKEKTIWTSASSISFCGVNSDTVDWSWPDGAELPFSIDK

The IC50 is the concentration that gives 50% inhibition. As to `CCO[C@@H]([C@@H]1OC(C(=O)O)=C[C@H](N=C(N)N)[C@H]1NC(C)=O)[C@H](O)CO` [Example 30, 5-Acetamido-4-guanidino-2,3,4,5,7-pentadeoxy-7-ethoxy-D-glycero-D-galacto-non-2-enoic acid trifluoroacetic acid salt], the IC50 in experiment [1] (read-out: IC50) worked out at 0.8 nM; in experiment [2], 7 nM.

As for `CCCCCC(=O)OCC(O)C(O)[C@@H]1OC(C(=O)O)=CC(NC(=N)N)C1NC(C)=O.O=C(O)C(F)(F)F` (stereo partly drawn) [Example 4′, 5-Acetamido-2,3,4,5-tetradeoxy-4-guanidino-9-O-hexanoyl-D-glycero-D-galacto-non-2-enopyranosoic acid trifluoroacetic acid salt], in experiment [3], the “number of surviving mice divided by the number of test mice, Day 6” value (from here on “number of surviving mice divided … Day 6”) is given as 10/10 and the “number of surviving mice divided by the number of test mice, Day 8” value (shortened to “number of surviving mice divided … Day 8”) is recorded as 6/10.

Regarding `CC(=O)NC1C(NC(=N)N)C=C(C(=O)O)O[C@H]1C(O)C(O)CO` (stereo partly drawn) [Compound A, reference compound], the “number of surviving mice divided … Day 8” value in experiment [3] is given as “one”. The half-maximal inhibitory concentration (IC50) in experiment [1] (unidentified influenza virus, H1N1, MDCK, 40 h, Table 3, plaque number reduced to 50%, MDCK cells) is 4.7 nM; in experiment [1] (unidentified influenza virus, H1N1, MDCK, 40 h, Table 4, plaque number reduced to 50%, MDCK cells) it was 11 nM. Further, the “number of surviving mice divided by the number of test mice, Day 3” value (from here on “number of surviving mice divided … Day 3”) in experiment [4] is on record as 3/7. Besides, the “number of surviving mice divided by the number of test mice, Day 10” value in experiment [4] and in experiment [5] was “dead” each time.

Consider `CCCCCCCC(=O)OCC(O)C(O)[C@@H]1OC(C(=O)O)=CC(NC(=N)N)C1NC(C)=O.O=C(O)C(F)(F)F` (stereo partly drawn) [Example 5′, 5-Acetamido-2,3,4,5-tetradeoxy-4-guanidino-9-O-octanoyl-D-glycero-D-galacto-non-2-enopyranosoic acid trifluoroacetic acid salt], for which, in experiment [3], the “number of surviving mice divided … Day 6” value is on record as 11/11 and the “number of surviving mice divided … Day 8” value is listed as 10/11.

On to `CCCCCCCCCCCCCCCCCCOC(=O)C1=CC(NC(=N)N)C(NC(C)=O)[C@H](C(O)C(O)CO)O1.O=C(O)C(F)(F)F` (stereo partly drawn) [Example 11′, Stearyl 5-acetamido-2,3,4,5-tetradeoxy-4-guanidino-D-glycero-D-galacto-non-2-enopyranosoate trifluoroacetic acid salt], for which, in experiment [5], the “influenza infection therapeutic effects compared with Compound A” value is reported as “superior to those of Compound A” and the “number of surviving mice divided … Day 8” value is listed as 11/11.

With `CCCCCCOC(=O)C1=CC(NC(=N)N)C(NC(C)=O)[C@H](C(O)C(O)CO)O1.O=C(O)C(F)(F)F` (stereo partly drawn) [Example 2′, Hexyl 5-acetamido-2,3,4,5-tetradeoxy-4-guanidino-D-glycero-D-galacto-non-2-enopyranosoate trifluoroacetic acid salt], in experiment [4], the “influenza infection therapeutic effects compared with Compound A” value is “superior to those of Compound A”; the “number of surviving mice divided … Day 3” value is recorded as 2/8; the “number of surviving mice divided … Day 6” value is given as 8/8. For the same compound, the “number of surviving mice divided by the number of test mice, Day 10” value in experiment [4] (trifluoroacetic acid salt) was 1 and 1/8.

For `CCCCCCCCCCCCCCCCOC(=O)C1=CC(NC(=N)N)C(NC(C)=O)[C@H](C(O)C(O)CO)O1.O=C(O)C(F)(F)F` (stereo partly drawn) [Example 10′, Cetyl 5-acetamido-2,3,4,5-tetradeoxy-4-guanidino-D-glycero-D-galacto-non-2-enopyranosoate trifluoroacetic acid salt], in experiment [5], the “influenza infection therapeutic effects compared with Compound A” value is “superior to those of Compound A” and the “number of surviving mice divided … Day 8” value is given as 10/12.

Take `CO[C@@H]([C@@H]1OC(C(=O)O)=C[C@H](N=C(N)N)[C@H]1NC(C)=O)[C@H](O)CO` [Example 28, 5-Acetamido-4-guanidino-2,3,4,5,7-pentadeoxy-7-methoxy-D-glycero-D-galacto-non-2-enopyranosoic acid trifluoroacetic acid salt]: the IC50 in experiment [1] (read-out: IC50) was 1.7 nM.

Regarding `CCCCCCCCCCCCCC(=O)OCC(O)C(O)[C@@H]1OC(C(=O)O)=CC(NC(=N)N)C1NC(C)=O.O=C(O)C(F)(F)F` (stereo partly drawn) [Example 3′, 5-Acetamido-2,3,4,5-tetradeoxy-4-guanidino-9-O-myristoyl-D-glvcero-D-galacto-non-2-enopyranosoic acid trifluoroacetic acid salt], in experiment [3], the “number of surviving mice divided … Day 6” value is 10/10 and the “number of surviving mice divided … Day 8” value is 10/10.

Regarding `CCCCCCCCCCCC(=O)OCC(O)C(O)[C@@H]1OC(C(=O)O)=CC(NC(=N)N)C1NC(C)=O.O=C(O)C(F)(F)F` (stereo partly drawn) [Example 8′, 5-Acetamido-2,3,4,5-tetradeoxy-4-guanidino-9-O-dodecanoyl-D-glycero-D-galacto-non-2-enopyranosoic acid trifluoroacetic acid salt], in experiment [3], the “number of surviving mice divided … Day 6” value is given as 11/11 and the “number of surviving mice divided … Day 8” value is 2/11.

Turning to `CCCCCCCCCC(=O)OCC(O)C(O)[C@@H]1OC(C(=O)O)=CC(NC(=N)N)C1NC(C)=O.O=C(O)C(F)(F)F` (stereo partly drawn) [Example 6′, 5-Acetamido-2,3,4,5-tetradeoxy-4-guanidino-9-O-decanoyl-D-glycero-D-galacto-non-2-enopyranosoic acid trifluoroacetic acid salt], in experiment [3], the “number of surviving mice divided … Day 6” value is reported as 11/11 and the “number of surviving mice divided … Day 8” value is given as 10/11.

Take `CCCCCCCCCCCCCCCCCC(=O)OCC(O)C(O)[C@@H]1OC(C(=O)O)=CC(NC(=N)N)C1NC(C)=O.O=C(O)C(F)(F)F` (stereo partly drawn) [Example 9′, 5-Acetamido-2,3,4,5-tetradeoxy-4-guanidino-9-O-octadecanoyl-D-glycero-D-galacto-non-2-enopyranosoic acid trifluoroacetic acid salt]: in experiment [3], the “number of surviving mice divided … Day 6” value is reported as 10/10 and the “number of surviving mice divided … Day 8” value is on record as 4/10.

Consider `CCCCCCCCCCCCCCCC(=O)OCC(O)C(O)[C@@H]1OC(C(=O)O)=CC(NC(=N)N)C1NC(C)=O.O=C(O)C(F)(F)F` (stereo partly drawn) [Example 7′, 5-Acetamido-2,3,4,5-tetradeoxy-4-guanidino-9-O-palmitoyl-D-glycero-D-galacto-non-2-enopyranosoic acid trifluoroacetic acid salt], for which, in experiment [3], the “number of surviving mice divided … Day 6” value is reported as 10/10 and the “number of surviving mice divided … Day 8” value is on record as 3/10.

In the case of `CCCCCCCCCCCCCCOC(=O)C1=CC(NC(=N)N)C(NC(C)=O)[C@H](C(O)C(O)CO)O1.O=C(O)C(F)(F)F` (stereo partly drawn) [Example 1′, Myristyl 5-acetamido-2,3,4,5-tetradeoxy-4-guanidino-D-glycero-D-galacto-non-2-enopyranosoate trifluoroacetic acid salt], in experiment [4], the “influenza infection therapeutic effects compared with Compound A” value was “superior to those of Compound A”; the “number of surviving mice divided … Day 3” value was 5/8; the “number of surviving mice divided … Day 6” value is reported as 8/8. Besides, in experiment [5], the “influenza infection therapeutic effects compared with Compound A” value is recorded as “superior to those of Compound A” and the “number of surviving mice divided … Day 8” value was 4/12.
